Read-outs that look alike come from different tables or passages of the source. Ends that are not written are not given here.
How the values were obtained:
TNFα = conditions: cited from earlier work
Dogs = conditions: cited from earlier work
Rodents = conditions: cited from earlier work
sepsis [1] = conditions: in vivo; cited from earlier work
humans = conditions: cited from earlier work
mice [2] = conditions: cited from earlier work
mice [3] = assay: LPS LD50 in mouse model; assay type: in vivo
Experimental: In mouse model the LD50 of LPS depends on liver protein synthesis. […] However, in mice pretreated with β-galactosamine to inhibit liver protein synthesis, the mouse LD50 is approximately 5 nanograms (200 ng/kg), 30,000 times less. By comparison, normal humans show reactions at 2-4 nanograms of LPS per kilogram. The human LD50 for LPS is below 5 micrograms per kilogram, three orders of magnitude lower than mice. Humans are […] larger yet die at doses only double the dose that kills a 25-gram mouse. […] Human LPS sensitivity is believed to be due to mutations in sialic acid binding Ig-like lectins (siglecs). Phenotypically, knockouts of siglecs produce hyper-reactive immune system components. The missing siglec-13 and inactivated siglec-17 that are active in other primates affects control over TLR4. TLR4 is the receptor for LPS. It is also the target for HMGB1, in DAMP signaling.

sepsis [4] = conditions: animal studies, as long as there is not an underlying infection; cited from earlier work

For COc1cc(CC(C)N)c(OC)cc1I (stereo not shown) [DOI, 2,5-Dimethoxy-4-iodoamphetamine], the “TNFα inhibition (in words)” value (TNFα) is listed as “strongest TNFα inhibitor known”.

For Polymyxin B sulfate, the “dose at which animals begin dying” value (Dogs) is listed as 8 mg/kg and the tolerated dose (Rodents) is listed as at least 100 mg/kg.

For “ghrelin: Ghrelin, injected to rescue from sepsis (GSSFLSPEHQRVQQRKESKKPPAKLQPR; ends and bridges not checked; UniProt Q9UBU3 24-51, looked up)”, the “rescue from sepsis (in words)” value (sepsis [1]) is listed as “rescue from sepsis with remarkable effect”.

In the case of lipopolysaccharide [LPS], the “LPS LD50” value (humans; average adult human, per person) is listed as 300 micrograms, the “LPS LD50” value (humans; human) is listed as “below 5 micrograms per kilogram” and the “LPS dose at which reactions are shown” value (humans; normal humans) is listed as 2-4 nanograms of LPS per kilogram. The “LPS LD50” value (mice [2]; mice pretreated with β-galactosamine to inhibit liver protein synthesis, per animal) was “approximately 5 nanograms”, the “LPS LD50” value (mice [2]; normal 25 gram mice, per animal) was “approximately 150 micrograms” and the “LPS LD50” value (mice [2]; normal 25 gram mice) was about 6 mg/kg. For the same molecule, the “time for LD50 dose to complete its course” value (mice [2]; normal 25 gram mice) was 35 h and the “fold lower LD50 in β-galactosamine pretreated vs normal mice” value (mice [3]) was 30,000 times.

B1: IL-10: IL-10, injected to temper sepsis (protein, UniProt P22301 19-178, looked up)
Interleukin-10: SPGQGTQSENSCTHFPGNLPNMLRDLRDAFSRVKTFFQMKDQLDNLLLKESLLEDFKGYLGCQALSEMIQFYLEEVMPQAENQDPDIKAHVNSLGENLKTLRLRLRRCHRFLPCENKSKAVEQVKNAFNKLQEKGIYKAMSEFDIFINYIEAYMTMKIRN
For B1, the “effect on sepsis (in words)” value (sepsis [4]) is listed as “effective in animal studies at tempering sepsis”.

From patent US20200325483A1, “SAFE DELIVERY OF CRISPR AND OTHER GENE THERAPIES TO LARGE FRACTIONS OF SOMATIC CELLS IN HUMANS AND ANIMALS” (priority 2016, published 2020)
